Measured values as given in ChEMBL document CHEMBL1124085, “Flavins as potential antimalarials. 1. 10-(Halophenyl)-3-methylflavins” (1988).
Several values for one entry are separate records, joined by “and”; a condition that tells them apart may be missing. Equal values may be shown once.

How the values were obtained:
Format in all cases: functional
Mus musculus [1] = experiment: Oral antimalarial activity against Plasmodium vinckei in mice (Mus musculus) measured as % cured and increase in MST (days) at 50 mg/kg dose.
Mus musculus [2] = experiment: Parenteral antimalarial activity against Plasmodium vinckei in mice (Mus musculus) measured as increase in mean survival time at 10 mg/kg dose.
Mus musculus [3] = experiment: Oral antimalarial activity against Plasmodium vinckei vinckei in mice (Mus musculus) measured as increase in mean survival time at 75 mg/kg dose.
Mus musculus [4] = experiment: Parenteral antimalarial activity against Plasmodium vinckei vinckei in mice (Mus musculus) measured as increase in mean survival time at 25 mg/kg dose.
Mus musculus [5] = experiment: Parenteral antimalarial activity against Plasmodium vinckei in mice (Mus musculus) measured as % cured and increase in MST (days) at 15 mg/kg dose.
Mus musculus [6] = experiment: Parenteral antimalarial activity against Plasmodium vinckei vinckei in mice (Mus musculus) measured as increase in mean survival time at 30 mg/kg dose.
Mus musculus [7] = experiment: Parenteral antimalarial activity against Plasmodium vinckei vinckei in mice (Mus musculus) measured as % cured and increase in MST (days) at 20 mg/kg dose.
Mus musculus [8] = experiment: Oral antimalarial activity against Plasmodium vinckei vinckei in mice (Mus musculus) measured as % cured and increase in MST (days) at 100 mg/kg dose.
Mus musculus [9] = experiment: Oral antimalarial activity against Plasmodium vinckei vinckei in mice (Mus musculus) measured as increase in mean survival time at 50 mg/kg dose.
Mus musculus [10] = experiment: Oral antimalarial activity against Plasmodium vinckei in mice (Mus musculus) measured as % cured and increase in MST (days) at 25 mg/kg dose.
Mus musculus [11] = experiment: Parenteral antimalarial activity against Plasmodium vinckei in mice (Mus musculus) measured as increase in mean survival time at 15 mg/kg dose.
Mus musculus [12] = experiment: Parenteral antimalarial activity against Plasmodium vinckei vinckei in mice (Mus musculus) measured as % cured and increase in MST (days) at 30 mg/kg dose.
Mus musculus [13] = experiment: Parenteral antimalarial activity against Plasmodium vinckei vinckei in mice (Mus musculus) measured as % cured and increase in MST (days) at 25 mg/kg dose.
Mus musculus [14] = experiment: Parenteral antimalarial activity against Plasmodium vinckei vinckei in mice (Mus musculus) measured as % cured and increase in MST (days) at 10 mg/kg dose.
Mus musculus [15] = experiment: Oral antimalarial activity against Plasmodium vinckei in mice (Mus musculus) measured as increase in mean survival time at 150 mg/kg dose.
Mus musculus [16] = experiment: Oral antimalarial activity against Plasmodium vinckei in mice (Mus musculus) measured as increase in mean survival time at 25 mg/kg dose.
Mus musculus [17] = experiment: Oral antimalarial activity against Plasmodium vinckei vinckei in mice (Mus musculus) measured as increase in mean survival time at 100 mg/kg dose.
Mus musculus [18] = experiment: Oral antimalarial activity against Plasmodium vinckei vinckei in mice (Mus musculus) measured as % cured and increase in MST (days) at 150 mg/kg dose.
Mus musculus [19] = experiment: Parenteral antimalarial activity against Plasmodium vinckei vinckei in mice (Mus musculus) measured as increase in mean survival time at 20 mg/kg dose.
Mus musculus [20] = experiment: Oral antimalarial activity against Plasmodium vinckei in mice (Mus musculus) measured as % cured and increase in MST (days) at 75 mg/kg dose.
Mus musculus [21] = experiment: Parenteral antimalarial activity against Plasmodium vinckei vinckei in mice (Mus musculus) measured as increase in mean survival time at 25 mg/kg dose
Mus musculus [22] = experiment: Oral antimalarial activity against Plasmodium vinckei in mice (Mus musculus) measured as % cured and increase in MST (days) at 75 mg/kg dose
Mus musculus [23] = experiment: Parenteral antimalarial activity against Plasmodium vinckei in mice (Mus musculus) measured as increase in mean survival time at 30 mg/kg dose
Mus musculus [24] = experiment: Parenteral antimalarial activity against Plasmodium vinckei in mice (Mus musculus) measured as increase in mean survival time at 10 mg/kg dose
Mus musculus [25] = experiment: Parenteral antimalarial activity against Plasmodium vinckei vinckei in mice (Mus musculus) measured as % cured and increase in MST (days) at 15 mg/kg dose
Mus musculus [26] = experiment: Parenteral antimalarial activity against Plasmodium vinckei in mice (Mus musculus) measured as % cured and increase in MST (days) at 25 mg/kg dose
Mus musculus [27] = experiment: Oral antimalarial activity against Plasmodium vinckei vinckei in mice (Mus musculus) measured as % cured and increase in MST (days) at 50 mg/kg dose
Mus musculus [28] = experiment: Oral antimalarial activity against Plasmodium vinckei vinckei in mice (Mus musculus) measured as % cured and increase in MST (days) at 150 mg/kg dose
Mus musculus [29] = experiment: Parenteral antimalarial activity against Plasmodium vinckei in mice (Mus musculus) measured as % cured and increase in MST (days) at 30 mg/kg dose
Mus musculus [30] = experiment: Oral antimalarial activity against Plasmodium vinckei vinckei in mice (Mus musculus) measured as % cured and increase in MST (days) at 100 mg/kg dose
Mus musculus [31] = experiment: Oral antimalarial activity against Plasmodium vinckei in mice (Mus musculus) measured as increase in mean survival time at 25 mg/kg dose
Mus musculus [32] = experiment: Parenteral antimalarial activity against Plasmodium vinckei in mice (Mus musculus) measured as % cured and increase in MST (days) at 10 mg/kg dose
Mus musculus [33] = experiment: Parenteral antimalarial activity against Plasmodium vinckei in mice (Mus musculus) measured as % cured and increase in MST (days) at 20 mg/kg dose
Mus musculus [34] = experiment: Oral antimalarial activity against Plasmodium vinckei in mice (Mus musculus) measured as % cured and increase in MST (days) at 25 mg/kg dose
Mus musculus [35] = experiment: Parenteral antimalarial activity against Plasmodium vinckei in mice (Mus musculus) measured as % cured and increase in MST (days) at 30 mg/kg dose.
Mus musculus [36] = experiment: Parenteral antimalarial activity against Plasmodium vinckei in mice (Mus musculus) measured as % cured and increase in MST (days) at 25 mg/kg dose.
Mus musculus [37] = experiment: Parenteral antimalarial activity against Plasmodium vinckei in mice (Mus musculus) measured as increase in mean survival time at 20 mg/kg dose
Mus musculus [38] = experiment: Oral antimalarial activity against Plasmodium vinckei in mice (Mus musculus) measured as increase in mean survival time at 100 mg/kg dose
Mus musculus [39] = experiment: Oral antimalarial activity against Plasmodium vinckei vinckei in mice (Mus musculus) measured as increase in mean survival time at 75 mg/kg dose
Mus musculus [40] = experiment: Oral antimalarial activity against Plasmodium vinckei in mice (Mus musculus) measured as increase in mean survival time at 150 mg/kg dose
Mus musculus [41] = experiment: Parenteral antimalarial activity against Plasmodium vinckei in mice (Mus musculus) measured as increase in mean survival time at 15 mg/kg dose
Mus musculus [42] = experiment: Oral antimalarial activity against Plasmodium vinckei vinckei in mice (Mus musculus) measured as increase in mean survival time at 50 mg/kg dose

| SMILES | Cured (Mus musculus [1]) [%] | MST (Mus musculus [3]) [days] | Cured (Mus musculus [5]) [%] | Cured (Mus musculus [7]) [%] | Cured (Mus musculus [8]) [%] | MST (Mus musculus [9]) [days] | Cured (Mus musculus [10]) [%] | Cured (Mus musculus [12]) [%] | Cured (Mus musculus [13]) [%] | MST (Mus musculus [16]) [days] | MST (Mus musculus [17]) [days] | Cured (Mus musculus [18]) [%] | Cured (Mus musculus [20]) [%] | MST (Mus musculus [21]) [days] | Cured (Mus musculus [22]) [%] | MST (Mus musculus [23]) [days] | Cured (Mus musculus [25]) [%] | Cured (Mus musculus [26]) [%] | Cured (Mus musculus [27]) [%] | Cured (Mus musculus [28]) [%] | further results |
| --- | --- | --- | --- | --- | --- | --- | --- | --- | --- | --- | --- | --- | --- | --- | --- | --- | --- | --- | --- | --- | --- |
| Cn1c(=O)nc2n(-c3ccc(Cl)cc3Cl)c3ccccc3nc-2c1=O | 0 | 1 | 0 | 0 | 80 | 1.3 | 0 | 0 | 0 | 0 | 1.5 | 60 | 40 | – | – | – | – | – | – | – | MST (Mus musculus [2]): 1.7 days; MST (Mus musculus [4]): -1.2 days; MST (Mus musculus [6]): -1 days; MST (Mus musculus [11]): 0.5 days; Cured (Mus musculus [14]): 0%; MST (Mus musculus [15]): 1.5 days; MST (Mus musculus [19]): 0 days |
| Cn1c(=O)nc2n(-c3ccc(Br)cc3)c3ccccc3nc-2c1=O | – | – | – | – | – | – | – | – | – | – | – | – | – | 14 | 100 | 13 | 100 | 60 | 100 | 100 | MST (Mus musculus [24]): 2 days; Cured (Mus musculus [29]): 40%; Cured (Mus musculus [30]): 100%; MST (Mus musculus [31]): 3.5 days; Cured (Mus musculus [32]): 80%; Cured (Mus musculus [33]): 100%; Cured (Mus musculus [34]): 60% |
| Cn1c(=O)nc2n(-c3ccc(Cl)c(Cl)c3)c3ccccc3nc-2c1=O | 0 | 0.5 | 60 | 100 | 0 | 0 | 0 | 60 | 80 | 0 | 0.5 | 40 | 0 | – | – | – | – | – | – | – | MST (Mus musculus [35]): 1 days; MST (Mus musculus [5]): 0.5 days; MST (Mus musculus [36]): 0 days; Cured (Mus musculus [14]): 0%; MST (Mus musculus [14]): 0.5 days |
| Cn1c(=O)nc2n(-c3cccc(Br)c3)c3ccccc3nc-2c1=O | – | – | – | – | – | – | – | – | – | – | – | – | – | 3 | 40 | 1 | 0 | 60 | 20 | 60 | MST (Mus musculus [37]): 1.4 days; MST (Mus musculus [38]): 1.5 days; MST (Mus musculus [39]): 1.5 days; Cured (Mus musculus [29]): 60%; MST (Mus musculus [40]): 1 days; Cured (Mus musculus [30]): 60%; MST (Mus musculus [31]; 25 mg/kg): 1 days and 2 days; MST (Mus musculus [41]): 1.3 days; Cured (Mus musculus [33]): 20%; Cured (Mus musculus [34]): 0% |
| Cc1cc(Cl)ccc1-n1c2nc(=O)n(C)c(=O)c-2nc2ccccc21 | 80 | 3.2 | 0 | 0 | 60 | 1.5 | 0 | 0 | 0 | 0.5 | 2 | 40 | 40 | – | – | – | – | – | – | – | MST (Mus musculus [4]): -1.4 days; MST (Mus musculus [6]): -2 days; MST (Mus musculus [11]): 1.2 days; MST (Mus musculus [15]): 1.5 days; MST (Mus musculus [19]): 1.2 days |
| Cn1c(=O)nc2n(-c3cccc(Cl)c3)c3ccccc3nc-2c1=O | – | – | – | – | – | – | – | – | – | – | – | – | – | 0 | 20 | 0 | 0 | 0 | 0 | 60 | MST (Mus musculus [37]): 0.2 days; MST (Mus musculus [38]): 1.2 days; MST (Mus musculus [39]): 4.3 days; Cured (Mus musculus [29]): 0%; MST (Mus musculus [40]): 2.5 days; Cured (Mus musculus [30]): 0%; MST (Mus musculus [41]): 0 days; Cured (Mus musculus [33]): 0%; MST (Mus musculus [42]): 0 days |
